Measurements published in US10053463B2 (Janssen Pharmaceutica NV, priority 2013, dated 2018).

target: P2X7 (Homo sapiens (Human), UniProt Q99572); experiment: P2X7 antagonism in human peripheral blood mononuclear cells (PBMCs), IL-1β release; format: cell-based; details: P2X7; Table 3 (additional runs); 10 μM compound; read-out: PBMC 10 μM (% control)
Experimental: P2X7 Antagonism in Human Peripheral Blood Mononuclear Cells (PBMCs) and Human Whole Blood.
Human blood was collected using a blood donor program. PBMCs were isolated from blood using a Ficoll density gradient technique. Briefly, blood was laid on Ficoll solution and centrifuged at RT for 20 minutes at 2000 rpm. The buffy layer (between red blood cells and plasma) was carefully collected by aspiration, washed with PBS and centrifuged again at 1500 rpm for 15 minutes. The resulting cell pellet was washed and plated on 96 well-plates for experiments. For the Human Whole Blood experiments, 150 μl of human blood was platted on 96 well-plates. Lipopolysaccharide (LPS) (30 ng/ml) was added to each well and incubated for 1 hour. Test compounds were then added and incubated for 30 minutes. The P2X7 agonist, 2′(3′)-O-(4-benzoylbenzoyl) adenosine 5′-triphosphate (Bz-ATP) was then added at a final concentration of 0.5 mM (PBMC) or 1 mM (blood). Cells were incubated for an additional 1.5 hours. At that point, supernatant was collected and stored for IL-1β assay using manufacturer's protocol for enzyme-linked immunosorbent assay (ELISA). Data was expressed as percent control, where control is defined as the difference in IL-1β release in LPS+Bz-ATP samples and LPS only samples. Data was plotted as response (% control) versus concentration to generate IC50 values. […] Data are analyzed and graphed on Graphpad Prism 5. For analysis, each concentration point is averaged from triplicate values and the averaged values are plotted on Graphpad Prism.

Sequence of P2X7 (Q99572 whole entry): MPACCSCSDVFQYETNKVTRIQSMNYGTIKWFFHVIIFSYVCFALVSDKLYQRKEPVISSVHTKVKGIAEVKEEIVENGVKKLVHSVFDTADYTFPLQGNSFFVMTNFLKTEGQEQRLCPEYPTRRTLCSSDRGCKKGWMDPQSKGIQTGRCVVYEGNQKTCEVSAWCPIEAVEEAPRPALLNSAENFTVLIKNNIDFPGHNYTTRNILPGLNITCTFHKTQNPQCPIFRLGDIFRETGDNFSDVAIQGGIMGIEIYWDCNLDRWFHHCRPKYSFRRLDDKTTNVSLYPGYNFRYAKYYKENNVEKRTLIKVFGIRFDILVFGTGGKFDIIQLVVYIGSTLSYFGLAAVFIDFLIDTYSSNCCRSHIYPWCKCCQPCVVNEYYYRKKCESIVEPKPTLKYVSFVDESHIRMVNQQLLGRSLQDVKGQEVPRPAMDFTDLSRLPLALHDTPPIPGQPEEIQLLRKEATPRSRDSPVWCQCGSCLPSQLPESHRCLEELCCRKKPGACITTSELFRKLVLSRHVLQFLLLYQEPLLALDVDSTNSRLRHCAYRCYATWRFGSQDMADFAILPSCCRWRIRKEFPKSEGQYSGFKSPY

SMILES	remaining activity at 10 µM [%]
C[C@H]1Cn2c(nnc2-c2cnn(C)c2)C(=O)N1Cc1cccc(C(F)(F)F)c1Cl [Example 24, (6S)-7-[2-Chloro-3-(trifluoromethyl)benzyl]-6-methyl-3-(1-methyl-1H-pyrazol-4-yl)-6,7-dihydro[1,2,4]triazolo[4,3-a]pyrazin-8(5H)-one]	-0.7
C[C@H]1Cn2c(nnc2-c2ncccn2)C(=O)N1Cc1cccc(C(F)(F)F)c1Cl [Example 27, (6S)-7-[2-Chloro-3-(trifluoromethyl)benzyl]-6-methyl-3-pyrimidin-2-yl-6,7-dihydro[1,2,4]triazolo[4,3-a]pyrazin-8(5H)-one]	-0.7
C[C@H]1Cn2c(nnc2-c2cccnc2)C(=O)N1Cc1cccc(C(F)(F)F)c1Cl [Example 29, (6S)-7-[2-Chloro-3-(trifluoromethyl)benzyl]-6-methyl-3-pyridin-3-yl-6,7-dihydro[1,2,4]triazolo[4,3-a]pyrazin-8(5H)-one]	-3.4
C[C@H]1Cn2c(nnc2-c2ccc(F)cn2)C(=O)N1Cc1cccc(C(F)(F)F)c1Cl [Example 30, (6S)-7-[2-Chloro-3-(trifluoromethyl)benzyl]-3-(5-fluoropyridin-2-yl)-6-methyl-6,7-dihydro[1,2,4]triazolo[4,3-a]pyrazin-8(5H)-one]	3.4
C[C@H]1Cn2c(nnc2-c2ccncn2)C(=O)N1Cc1cccc(C(F)(F)F)c1Cl [Example 33, (6S)-7-[2-Chloro-3-(trifluoromethyl)benzyl]-6-methyl-3-pyrimidin-4-yl-6,7-dihydro[1,2,4]triazolo[4,3-a]pyrazin-8(5H)-one]	0.9
C[C@H]1Cn2c(nnc2-c2ncc(F)cn2)C(=O)N1Cc1cccc(C(F)(F)F)c1Cl [Example 34, (6S)-7-[2-Chloro-3-(trifluoromethyl)benzyl]-3-(5-fluoropyrimidin-2-v1)-6-methyl-6,7-dihydro[1,2,4]triazolo[4,3-a]pyrazin-8(5H)-one]	0.8
COc1ccnc(-c2nnc3n2C[C@H](C)N(Cc2cccc(C(F)(F)F)c2Cl)C3=O)c1 [Example 35, (6S)-7-[2-Chloro-3-(trifluoromethyl)benzyl]-3-(4-methoxypyridin-2-yl)-6-methyl-6,7-dihydro[1,2,4]triazolo[4,3-a]pyrazin-8(5H)-one]	-3.1
C[C@H]1Cn2c(nnc2-c2csc(C(F)(F)F)n2)C(=O)N1Cc1cccc(C(F)(F)F)c1Cl [Example 38, (6S)-7-[2-Chloro-3-(trifluoromethyl)benzyl]-6-methyl-3-[2-(trifluoromethyl)-1,3-thiazol-4-yl]-6,7-dihydro[1,2,4]triazolo[4,3-a]pyrazin-8(5H)-one]	19.8
C[C@H]1Cn2c(nnc2-c2ccon2)C(=O)N1Cc1cccc(C(F)(F)F)c1Cl [Example 41, (6S)-7-[2-Chloro-3-(trifluoromethyl)benzyl]-3-isoxazol-3-yl-6-methyl-6,7-dihydro[1,2,4]triazolo[4,3-a]pyrazin-8(5H)-one]	35
C[C@H]1Cn2c(nnc2-c2ncc(Br)cn2)C(=O)N1Cc1cccc(C(F)(F)F)c1Cl [Example 42, (6S)-3-(5-Bromopyrimidin-2-yl)-7-[2-chloro-3-(trifluoromethyl)benzyl]-6-methyl-6,7-dihydro[1,2,4]triazolo[4,3-a]pyrazin-8(5H)-one]	37.4
C[C@H]1Cn2c(nnc2-c2cccnn2)C(=O)N1Cc1cccc(C(F)(F)F)c1Cl [Example 44, (6S)-7-[2-Chloro-3-(trifluoromethyl)benzyl]-6-methyl-3-pyridazin-3-yl-6,7-dihydro[1,2,4]triazolo[4,3-a]pyrazin-8(5H)-one]	26
C[C@H]1Cn2c(nnc2-c2cncc(F)c2)C(=O)N1Cc1cccc(C(F)(F)F)c1Cl [Example 45, (6S)-7-[2-Chloro-3-(trifluoromethyl)benzyl]-3-(5-fluoropyridin-3-yl)-6-methyl-6,7-dihydro[1,2,4]triazolo[4,3-a]pyrazin-8(5H)-one]	20.1

Continued, values first:

remaining activity at 10 µM [%]	SMILES
2.8	C[C@H]1Cn2c(nnc2-c2cn[nH]c2)C(=O)N1Cc1cccc(C(F)(F)F)c1Cl [Example 25, (6S)-7-[2-Chloro-3-(trifluoromethyl)benzyl]-6-methyl-3-(1H-pyrazol-4-yl)-6,7-dihydro[1,2,4]triazolo[4,3-a]pyrazin-8(5H)-one]
-3.7	Cc1cc(-c2nnc3n2C[C@H](C)N(Cc2cccc(C(F)(F)F)c2Cl)C3=O)n[nH]1 [Example 26, (6S)-7-[2-Chloro-3-(trifluoromethyl)benzyl]-6-methyl-3-(5-methyl-1H-pyrazol-3-yl)-6,7-dihydro[1,2,4]triazolo[4,3-a]pyrazin-8(5H)-one]
-11.7	C[C@H]1Cn2c(nnc2-c2cc[nH]n2)C(=O)N1Cc1cccc(C(F)(F)F)c1Cl [Example 28, (6S)-7-[2-Chloro-3-(trifluoromethyl)benzyl]-6-methyl-3-(1H-pyrazol-3-yl)-6,7-dihydro[1,2,4]triazolo[4,3-a]pyrazin-8(5H)-one]
3	C[C@H]1Cn2c(nnc2-c2nccs2)C(=O)N1Cc1cccc(C(F)(F)F)c1Cl [Example 31, (6S)-7-[2-Chloro-3-(trifluoromethyl)benzyl]-6-methyl-3-(1,3-thiazol-2-yl)-6,7-dihydro[1,2,4]triazolo[4,3-a]pyrazin-8(5H)-one]
3.8	C[C@H]1Cn2c(nnc2-c2cscn2)C(=O)N1Cc1cccc(C(F)(F)F)c1Cl [Example 32, (6S)-7-[2-Chloro-3-(trifluoromethyl)benzyl]-6-methyl-3-(1,3-thiazol-4-yl)-6,7-dihydro[1,2,4]triazolo[4,3-a]pyrazin-8(5H)-one]
2.8	Cc1nc(-c2nnc3n2C[C@H](C)N(Cc2cccc(C(F)(F)F)c2Cl)C3=O)cs1 [Example 36, (6S)-7-[2-Chloro-3-(trifluoromethyl)benzyl]-6-methyl-3-(2-methyl-1,3-thiazol-4-yl)-6,7-dihydro[1,2,4]triazolo[4,3-a]pyrazin-8(5H)-one]
9	C[C@H]1Cn2c(nnc2-c2cncs2)C(=O)N1Cc1cccc(C(F)(F)F)c1Cl [Example 37, (6S)-7-[2-Chloro-3-(trifluoromethyl)benzyl]-6-methyl-3-(1,3-thiazol-5-yl)-6,7-dihydro[1,2,4]triazolo[4,3-a]pyrazin-8(5H)-one]
20.3	Cc1nc(C)c(-c2nnc3n2C[C@H](C)N(Cc2cccc(C(F)(F)F)c2Cl)C3=O)s1 [Example 39, (6S)-7-[2-Chloro-3-(trifluoromethyl)benzyl]-3-(2,4-dimethyl-1,3-thiazol-5-yl)-6-methyl-6,7-dihydro[1,2,4]triazolo[4,3-a]pyrazin-8(5H)-one]
22.3	Cc1ncsc1-c1nnc2n1C[C@H](C)N(Cc1cccc(C(F)(F)F)c1Cl)C2=O [Example 40, (6S)-7-[2-Chloro-3-(trifluoromethyl)benzyl]-6-methyl-3-(4-methyl-1,3-thiazol-5-yl)-6,7-dihydro[1,2,4]triazolo[4,3-a]pyrazin-8(5H)-one]
2.7	Cc1cccc(-c2nnc3n2C[C@H](C)N(Cc2cccc(C(F)(F)F)c2Cl)C3=O)n1 [Example 46, (6S)-7-[2-Chloro-3-(trifluoromethyl)benzyl]-6-methyl-3-(6-methylpyridin-2-yl)-6,7-dihydro[1,2,4]triazolo[4,3-a]pyrazin-8(5H)-one]
